Like-named read-outs stand apart in the source and are kept apart here.

Broadly, the Ki is the equilibrium dissociation constant of an inhibitor or competing ligand from its target. A word on the Kd: it is the free concentration of one partner at which half of the binding sites on the other are occupied at equilibrium, for simple one-to-one binding.

Assay [1] has as its system H4 cells overexpressing alpha-synuclein hemi-Venus fusion constructs (V1S+SV2). Nature of the assay: Cellular model of aggregated alpha-synuclein-dependent toxicity, V1S+SV2 H4 cells. In kind it is cell-based. The settings on record: 10 μM compound, 100 μM FeCl3, 0.75% DMSO, 48 h; for inhibition at 10 µM: read-out: Change in fraction of condensed nuclei (rel. to DMSO control) [%]. Here is the method: (§1) To identify potential therapeutically useful effects, compounds were tested in two cellular models of aggregated alpha-synuclein-dependent toxicity in H4 cells. These cellular models allow for the inducible overexpression of alpha-synuclein hemi-Venus fusion constructs (V1S+SV2) or full-length alpha-synuclein (the model is described in detail in: Bartels M, Weckbecker D, Kuhn P H, Ryazanov S, Leonov A, Griesinger C, Lichtenthaler S F, Bötzel K, Giese A: Iron-mediated aggregation and toxicity in a novel neuronal cell culture model with inducible alpha-synuclein expression, Sci. Rep. 2019 Jun. 24; 9(1):9100). Moreover, addition of DMSO and FeCl3 promotes the aggregation of alpha-synuclein which is associated with an increase in cytotoxicity. The cell culture assay uses these effects by determining the change in the number of cells and the change in the percentage of condensed nuclei, which is indicative of apoptosis, in order to obtain information on which compounds show the most promising effects and thus might be therapeutically useful.
(§2) In these experiments, cells were incubated with 100 μM FeCl3 and 0.75% DMSO in the presence of 10 μM anle138c as a positive control, compounds 1 to 19 (10 μM), or DMSO as a negative control. After 48 h, the cells were imaged with an OPERA high-throughput imaging system and analyzed using Acapella software (Perkin Elmer). […] A reduction in the fraction of condensed nuclei (in the absence of a strong reduction in cell number) is indicative of a beneficial therapeutic effect.

For assay [2], the target named is T1, alpha-synuclein (sonicated fibrils) (Homo sapiens, UniProt P37840).
T1 construct: made in house; host or cells: E. coli
Nature of the assay: Modified competition binding assay, protocol 3b, reference ligand [3H]-compound 2. The settings on record: Table 5, reference ligand [3H]-compound 2 (1 nM). Summed up: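 Sonicated recombinant human αSYN fibrils (15 nM/well) incubated with 1 nM [3H]-compound 2 and serially diluted unlabeled competitor in 30 mM Tris-HCl, 10% ethanol, 0.05% Tween20, pH 7.4, 4.5 h at RT. Filtration readout; IC50 by non-linear regression, Ki calculated using KD 0.2 nM.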

A further assay concerns the target T2, tau46 (fibrils) (Homo sapiens, UniProt P10636).
T2 construct: made in house; host or cells: E. coli
Nature of the assay: Competition binding assay, protocol 3a, reference ligand [3H]-compound 1, tau46 fibrils. The settings on record: Experiment B, reference ligand [3H]-compound 1 (1 nM). Here is the method: (§3) Alpha-synuclein and tau46 were purified from E. coli according to established protocols (Nuscher B, et al., J. Biol. Chem., 2004; 279(21):21966-75), Aβ1-42 was obtained from rPeptide, Watkinsville, Ga., USA. Fibrils were prepared by aggregation of recombinant protein via constant agitation. In detail, 70 μM of alpha-synuclein mixed with 100 mM NaCl in 50 mM Tris, pH 7.0+0.02% NaN3 were incubated at 1,400 rpm, 37° C. for 96 h. 10 μM of tau46 were incubated with 0.03 mg/ml heparin in 50 mM Tris, pH=7.0 at 1,000 rpm, 37° C. for 72 h. Aβ1-42 was solved in 20 mM NaPi, pH=8.0+0.2 mM EDTA+0.02% NaN3 (Deeg A A, et al., Biochim. Biophys. Acta, 2015; 1850(9): 1884-90; Goedert M, et al. Nature, 1996; 383(6600): 550-3).
(§4) A fixed concentration of sonicated human recombinant αSYN (200 nM/well) or tau46 (208 nM/well) fibrils diluted in phosphate buffered saline (PBS) were incubated in low binding plates (96 well micro test plate, Ratiolab GmbH, Dreieich, Germany) together with 1 nM [^3H]-compound 1 and 1:4 serial dilutions of the cold compound of interest starting from 1 μM diluted in 50 mM Tris-base, 10% EtOH, 0.05% Tween20, pH 7.4. For the calculation of Ki values the KD value of compound 1 toward sonicated human recombinant αSYN fibrils was set to 3 nM.
(§5) Assay plates were incubated under agitation at 37° C. for 2 h covered by plastic foil (Resealable tape, PerkinElmer, Waltham, Mass., USA). Prior to harvesting, a filter (Printed filtermat B, PerkinElmer, Waltham, Mass., USA) was incubated with 5 mg/mL polyethylenimine (PEI, Poly(ethyleneimine) solution, Sigma Aldrich Chemie GmbH, Taufkirchen, Germany) at 4° C. for 30 min. After incubation, bound and free ligands were separated by vacuum filtration using a harvester (Filtermate harvester, PerkinElmer, Waltham, Mass., USA). The filter was washed three times with buffer cooled to 4° C. and subsequently dried in the microwave for 2 min at medium power. The filter was sealed in a plastic bag (Sample bag for MicroBeta®, PerkinElmer, Waltham, Mass., USA) together with added scintillator (BETAPLATE SCINT, PerkinElmer, Waltham, Mass., USA). Accumulation of tritium was counted in a liquid scintillation counter (Wallac MicroBeta® TriLux, 1450 LSC & Luminescence Counter, PerkinElmer, Waltham, Mass., USA) immediately. Radioactivity was plotted against the increasing tritium-labeled compound or cold compound concentrations. Data points were fitted using nonlinear regression analysis in GraphPad Prism (GraphPad Software, Inc., Version 7.03, La Jolla, Calif., USA).
(§6) The fibril competition assay provides Ki values. Ki is a quantitative measure that represents the concentration of the non-radioactive tested compound (competitor ligand) required to replace 50% of a reference compound, in this case [H]-compound 1 (1 nM) or [H]-compound 2 (1 nM), which is bound to the target structures (1 nM), in our case recombinant alpha-synuclein and tau46 fibrils. This assay is suitable for a screening of non-radioactive ligands.

The target in assay [3] is T3, alpha-synuclein (fibrils) (Homo sapiens, UniProt P37840).
T3 construct: made in house; host or cells: E. coli
Nature of the assay: Competition binding assay, protocol 3a, reference ligand [3H]-compound 1, alpha-synuclein fibrils. The settings on record: reference ligand [3H]-compound 1 (1 nM). Here is the method:
as §3, §4, §5, §6

The test system of assay [4] is H4 cells overexpressing full-length alpha-synuclein. Nature of the assay: Cellular model of aggregated alpha-synuclein-dependent toxicity, full-length alpha-synuclein H4 cells. In kind it is cell-based. The settings on record: 10 μM compound, 100 μM FeCl3, 0.75% DMSO, 48 h; for inhibition at 10 µM: read-out: Change in fraction of condensed nuclei (rel. to DMSO control) [%]. Here is the method:
as §1, §2

For assay [5], the target named is T1, alpha-synuclein (sonicated fibrils). Nature of the assay: Modified competition binding assay, protocol 3b, reference ligand [3H]-compound 1. The settings on record: Table 4b, reference ligand [3H]-compound 1 (1 nM), read-out: Ki (nM) alpha-synuclein (sonicated fibrils). Here is the method: Fibrils were prepared by aggregation of recombinant protein via constant agitation. In detail, 70 μM of alpha-synuclein mixed with 100 mM NaCl in 50 mM Tris, pH 7.0+0.02% NaN3 were incubated at 1,400 rpm, 37° C. for 96 h. 10 μM of tau46 were incubated with 0.03 mg/ml heparin in 50 mM Tris, pH=7.0 at 1,000 rpm, 37° C. for 72 h.
Plates were incubated for 4.5 hours at RT covered by removable sealing tape (PerkinElmer, Waltham, Mass., USA).
Filtration and readout were performed as described for saturation binding assays.
The fibril competition assay provides Ki values. […] This assay is suitable for a screening of non-radioactive ligands.

Assay [6] deals with T4, aggregated alpha-synuclein (Homo sapiens, UniProt P37840).
T4 construct: made in house; host or cells: E. coli
Nature of the assay: Saturation binding assay, protocol 2a, alpha-synuclein fibrils. The settings on record: saturation assay protocol 2a, [3H]-labeled compound; read-out: KD [nM] for aggregated alpha-synuclein. Here is the method: as §3
Sonicated αSYN (0.04 μM) or tau46 (0.4 μM) or Aβ1-42 (6 μM) fibrils diluted in PBS were incubated with decreasing concentrations of [^3H]-labeled compound (48 nM or 24 nM-[…]) in 50 mM Tris-base, 10% ethanol, 0.05% Tween20, pH 7.4. To determine non-specific binding, the respective unlabeled compound (400 nM) was added to a duplicate set of binding reactions.
as §5, with “2 h,” for “2 h”, “microwave oven” for “microwave”, “power. Melt-on scintillator sheets (MeltiLex™ B/HS, PerkinElmer, Waltham, Mass., USA) were molten into the filter using a heating plate set to 120° C. After solidifying at room temperature, the” for “power. The”, “MicroBeta®,” for “MicroBeta®, PerkinElmer, Waltham, Mass., USA) together with added scintillator (BETAPLATE SCINT,”
The fibril-binding saturation assay provides KD values. This assay is performed with directly radioactively labeled compounds (e.g. ^3H labeling). The saturation binding assays were performed using as target structures fibrillar aggregates produced from recombinant human alpha-synuclein, Aβ1-42, and tau46, respectively.

The mark [7] stands for this setting: Experiment B, read-out: Ki (nM) alpha-synuclein (sonicated fibrils).
Where [8] appears, read: Experiment A, read-out: Ki (nM) alpha-synuclein (fibrils).

T2 sequence (P10636 1-412 isoform P10636-7): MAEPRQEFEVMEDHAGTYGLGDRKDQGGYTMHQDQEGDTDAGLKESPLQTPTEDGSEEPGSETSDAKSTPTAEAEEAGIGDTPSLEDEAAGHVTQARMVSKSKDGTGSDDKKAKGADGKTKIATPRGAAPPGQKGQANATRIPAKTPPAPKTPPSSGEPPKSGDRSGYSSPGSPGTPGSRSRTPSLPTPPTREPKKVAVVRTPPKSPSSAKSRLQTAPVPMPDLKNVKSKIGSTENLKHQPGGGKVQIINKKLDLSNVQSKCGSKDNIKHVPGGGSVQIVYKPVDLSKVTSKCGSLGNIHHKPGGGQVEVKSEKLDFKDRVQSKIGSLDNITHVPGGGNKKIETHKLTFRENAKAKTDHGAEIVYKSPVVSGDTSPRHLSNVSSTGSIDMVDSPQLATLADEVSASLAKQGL

For the compound `Brc1cc(-c2cc(-c3ccc(N4CCC4)cc3)n[nH]2)ccn1` [Compound 17, 4-{3-[4-(azetidin-1-yl)phenyl]-1H-pyrazol-5-yl}-2-bromopyridine], the “Change in cell number (rel. to DMSO control) [%]” value (“Change in cell number … [%]” for short) was −8.2% in assay [1] and −28.9% in assay [4]. The inhibition at 10 µM in assay [1] is 38.3%; in assay [4], 55%. In addition, the Ki was found to be 0.8 nM in assay [2], 1 nM at tau46 (fibrils) and 2 nM in assay [3] (setting [7]).
For `CN(C)c1ccc(-c2cc(-c3ccnc(Br)c3)[nH]n2)cn1` [Compound 4, 5-[5-(2-bromopyridin-4-yl)-1H-pyrazol-3-yl]-N,N-dimethylpyridin-2-amine], the “Change in cell number … [%]” value in assay [1] was −36.9%; in assay [4] it was −48.6%. Further, the inhibition at 10 µM in assay [1] is -33.7%; in assay [4], 30.1%. Moreover, the Ki in assay [2] was determined as 0.7 nM; at tau46 (fibrils), 31 nM; in assay [3] (setting [8]), 8 nM; in assay [3] (setting [7]), 13 nM.
With `Brc1cncc(-c2cc(-c3ccc4c(c3)OCO4)n[nH]2)c1` [Compound 10], the “Change in cell number … [%]” value in assay [1] is −32.8%; in assay [4], −35.3%. The inhibition at 10 µM in assay [1] amounted to 50.3%; in assay [4], 60.2%. Further, the inhibition constant Ki was 7.8 nM in assay [2], more than 100 nM on tau46 (fibrils), 34 nM in assay [3] (setting [8]) and 25 nM in assay [3] (setting [7]).
Take `CN(C)c1ccc(-c2cc(-c3ccnc(F)c3)[nH]n2)cc1` [Compound 3, 4-[5-(2-fluoropyridin-4-yl)-1H-pyrazol-3-yl]-N,N-dimethylaniline]: the “Change in cell number … [%]” value in assay [1] is reported as −11.3%; in assay [4] it was −34.8%. Also, the inhibition at 10 µM in assay [1] turned out to be 31.9%; in assay [4] it was 79.1%. The Ki was 0.95 nM in assay [2], 4 nM on tau46 (fibrils), less than 0.1 nM in assay [3] (setting [8]) and 3 nM in assay [3] (setting [7]).
In the case of `Brc1cc(-c2cc(-c3ccc4c(c3)OCO4)n[nH]2)ccn1` [Compound 9, 4-[3-(1,3-benzodioxol-5-yl)-1H-pyrazol-5-yl]-2-bromopyridine], the inhibitory constant (Ki) was 2.1 nM in assay [5]; 3.3 nM in assay [2]; 28 nM at tau46 (fibrils); 2 nM in assay [3] (setting [8]); less than 4 nM in assay [3] (setting [7]). Besides, the “Change in cell number … [%]” value is recorded as −22.5% in assay [1] and −35.3% in assay [4]. The inhibition at 10 µM was determined as 31.8% in assay [1] and 23.8% in assay [4].
For `Cn1nc(-c2ccc3c(c2)OCO3)cc1-c1ccnc(Br)c1` [Compound 18, 4-[3-(1,3-benzodioxol-5-yl)-1-methyl-1H-pyrazol-5-yl]-2-bromopyridine], in assay [6], the Kd came out at 126 nM. Further, the figures for the “Change in cell number … [%]” value in assay [1] and in assay [4] were −11.8% and −21.3%, respectively. Also, the inhibition at 10 µM in assay [1] amounted to 19.9%; in assay [4], 18.2%.

Source of the values: patent publication US20230067910A1, “NOVEL COMPOUNDS FOR THE DIAGNOSIS, TREATMENT AND PREVENTION OF DISEASES ASSOCIATED WITH THE AGGREGATION OF ALPHA-SYNUCLEIN” (MODAG GMBH, priority 2019, published 2023).
